Source: US20160067232A1, “METHODS FOR TREATING A STROKE-RELATED SENSORIMOTOR IMPAIRMENT USING AMINOPYRIDINES” (Acorda Therapeutics, Inc., priority 2011, published 2016)
Several values for one entry are separate records, joined by “and”; a condition that tells them apart may be missing. Identical values can stand only once.

Tested on: rats with middle cerebral artery occlusion (MCAO)
Assay: Hindlimb placing test, MCAO rats, double crossover study (Example 2)
Type: in vivo, Sprague Dawley rat
Design: Hindlimb Placing Total Score, individual animals / Hindlimb Placing Total Score, Mean: scale not given here
Settings: for Hindlimb Placing Total Score, individual animals: one value per rat; for Hindlimb Placing Total Score, Mean: N 15
Description: 4-AP was evaluated for its ability to promote functional sensorimotor improvement following ischemic stroke in rats with stable motor deficits at times remote from their ischemic events. The animal model mimics the conditions in human ischemic stroke and is produced by middle cerebral artery occlusion (MCAO), which results in extensive infarction in cerebral cortex and striatum, including the cortical spinal tract (white matter).
In particular, the MCAO model in Sprague Dawley rats that was utilized in the experiments presented below mimics the conditions in human ischemic stroke. In this model, focal cerebral infarcts were made by permanent occlusion of the proximal right middle cerebral artery (MCA) using a modification of the method of Tamura et al. (No To Shinkei 1986; 38:747-51). Briefly, the temporalis muscle was bisected and reflected through an incision made midway between the eye and the ear canal. The proximal MCA was exposed through a subtemporal craniectomy without removing the zygomatic arch and without transecting the facial nerve.
Dosing and Treatment: Rats were treated in accordance with the dosing schedule shown in Tables 2A, 2B, 3 and FIG. 2, with each Phase being a two week period of time. A solution of 4-AP was used in this experiment. Dosing was started at 4 weeks after ischemic event. 4-aminopyridine was dissolved in water for injection (WFI, Cellgro) and sterile filtered. Final concentrations of 0.315 mg/mL or 1.0 mg/mL of 4-aminopyridine were delivered at 2 mL/kg by gastric gavage, resulting in final doses of 0.63 mg/kg and 2 mg/kg respectively. Vehicle control treatment was WFI delivered at 2 mL/kg by gastric gavage. This study was divided into three treatment phases (1-3) with each randomized cohort of animals receiving a different dose level during each of the treatment phases. Starting on day 30 after MCAO (Day 30, start of phase 1), the animals received gavage dosing of solutions (2 mL/kg) approximately 12 hours apart, for a total of five doses. The same schedule was repeated with different treatment on Day 44 and Day 58 for phase 2 and 3 of the study, respectively. Animals were not treated during the 10 days between phases (washout period).
Treatment groups: Dosing was started 4 weeks after MCAO surgery. During these 4 weeks, weekly behavioral assessments, as defined below, were performed. Two dose levels of 4-AP plus vehicle control were assessed, with treatment starting at 4 weeks after ischemic event. All dosing was via gastric gavage, volume not to exceed 2 mL/kg. Animals were given the first dose and behavioral assessments were performed starting 60 minutes after dosing. Animals then received the second dose that day at the appropriate time and b.i.d (preferably every 12 hours) thereafter for 2 more days (3 total days of dosing, 5 total doses). One hour after the 5th dose, animals were subjected to behavioral assessments as defined below. Following the final behavioral assessment, drug was withdrawn for 10 or 11 days, behavior was re-assessed, and then animals were re-challenged with a cross-over treatment (Phase 2 of Table 2B) as described in Tables 2A, 2B and 3, followed by the same behavioral testing and dosing regimen. This cross-over was repeated one more time as well (Phase 3 of Table 2B) (see FIG. 2).
Behavioral test details: Behavioral evaluations were done by evaluators blinded to treatment assignment. Blinded assessments of sensorimotor function were performed just prior to MCAO surgery, 24 hours after MCAO surgery and weekly thereafter until the first phase of dosing using limb placing and body swing behavioral tests. As described above, behavioral assessments were timed exactly with dosing times. Animals were tested one hour after the 1st and 5th doses of each phase (i.e., Days 30 and 32 of the first phase, Days 44 and 46 of the second phase; and Days 58 and 60 of the third phase); animals were also tested during the washout periods on Days 42 and 56. […]

[1] = Group 3 (sequence vhl), D44 after MCAO, phase 2, high dose
[2] = Group 3 (sequence vhl), D46 after MCAO, phase 2, high dose
[3] = Group 3 (sequence vhl), D58 after MCAO, phase 3, low dose
[4] = Group 3 (sequence vhl), D60 after MCAO, phase 3, low dose

Nc1ccncc1 [4-aminopyridine]
Hindlimb function, low dose compared to vehicle (0.63 mg/kg b.i.d. p.o., first mixed model, p=0.0027): significantly improved the hindlimb function | Hindlimb function, high dose compared to vehicle (2 mg/kg b.i.d. p.o., first mixed model, p<0.0001): significantly improved the hindlimb function | Hindlimb Placing Total Score, individual animals (Group 2 (sequence lvh), D30 after MCAO, phase 1, low dose): 2.50 and 1.50 (6×) and 2.00 (5×) and 1.00 and 0.50 and 3.00 | Hindlimb Placing Total Score, individual animals (Group 2 (sequence lvh), D32 after MCAO, phase 1, low dose): 2.00 (2×) and 1.00 (4×) and 1.50 (8×) and 0.50 | Hindlimb Placing Total Score, individual animals (Group 2 (sequence lvh), D58 after MCAO, phase 3, high dose): 2.00 (2×) and 0.00 (5×) and 1.00 and 1.50 (4×) and 0.50 (3×) | Hindlimb Placing Total Score, individual animals (Group 2 (sequence lvh), D60 after MCAO, phase 3, high dose): 0.50 (5×) and 0.00 (9×) and 1.00 | Hindlimb Placing Total Score, Mean [1]: 0.90 | Hindlimb Placing Total Score, individual animals [1]: 2.00 (2×) and 0.00 (3×) and 1.50 and 1.00 (2×) and 0.50 (2×) | Hindlimb Placing Total Score, Mean [2]: 0.30 | Hindlimb Placing Total Score, individual animals [2]: 1.00 and 0.00 (6×) and 0.50 (3×) | Hindlimb Placing Total Score, Mean [3]: 0.80 | Hindlimb Placing Total Score, individual animals [3]: 1.50 and 0.50 (3×) and 1.00 (3×) and 3.00 and 0.00 (2×) | Hindlimb Placing Total Score, Mean [4]: 0.70 | Hindlimb Placing Total Score, individual animals [4]: 1.50 and 1.00 (3×) and 0.50 (2×) and 2.00 and 0.00 (3×) | Effect on hindlimb function (FIGS. 4A-D) (low or high dose, 4 weeks post ischemic brain injury, dose responsive, reversible): effective to improve hindlimb function
